Results as given in PubChem BioAssay (NCI).
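The compound was tested at five concentrations on cells cultured in 96-well plates, with a 48-hour exposure period. TGI: total growth inhibition.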

Experiments:
Assay in all cases: DTP human tumour cell line panel, 48 h
T-47D breast = system: T-47D breast
M14 melanoma = system: M14 melanoma
SW-620 colon = system: SW-620 colon
MALME-3M melanoma = system: MALME-3M melanoma
SR leukemia = system: SR leukemia
MCF7 breast = system: MCF7 breast
NCI-H23 lung = system: NCI-H23 lung
NCI-H460 lung = system: NCI-H460 lung
SNB-19 CNS = system: SNB-19 CNS
SF-268 CNS = system: SF-268 CNS
EKVX NSCLC = system: EKVX NSCLC
CCRF-CEM leukemia = system: CCRF-CEM leukemia
HCC-2998 colon = system: HCC-2998 colon
ACHN renal = system: ACHN renal
SK-OV-3 ovarian = system: SK-OV-3 ovarian
RPMI-8226 leukemia = system: RPMI-8226 leukemia
UO-31 renal = system: UO-31 renal
MDA-MB-435 = system: MDA-MB-435
SK-MEL-5 melanoma = system: SK-MEL-5 melanoma
HOP-62 NSCLC = system: HOP-62 NSCLC
NCI-H522 lung = system: NCI-H522 lung
UACC-257 melanoma = system: UACC-257 melanoma
SK-MEL-2 melanoma = system: SK-MEL-2 melanoma
MOLT-4 leukemia = system: MOLT-4 leukemia
OVCAR-3 ovarian = system: OVCAR-3 ovarian
SF-539 CNS = system: SF-539 CNS
HT29 colon = system: HT29 colon
SNB-75 CNS = system: SNB-75 CNS
K-562 leukemia = system: K-562 leukemia
U251 CNS = system: U251 CNS
CAKI-1 renal = system: CAKI-1 renal
HL-60(TB) leukemia = system: HL-60(TB) leukemia
LOX IMVI melanoma = system: LOX IMVI melanoma
MDA-N = system: MDA-N
A498 renal = system: A498 renal
KM12 colon = system: KM12 colon
HCT-116 colon = system: HCT-116 colon
MDA-MB-231 breast = system: MDA-MB-231 breast
SN12C renal = system: SN12C renal
SK-MEL-28 melanoma = system: SK-MEL-28 melanoma
DU-145 prostate = system: DU-145 prostate
OVCAR-8 ovarian = system: OVCAR-8 ovarian
IGROV1 ovarian = system: IGROV1 ovarian
OVCAR-5 ovarian = system: OVCAR-5 ovarian
HS 578T breast = system: HS 578T breast
A549 NSCLC = system: A549 NSCLC
UACC-62 melanoma = system: UACC-62 melanoma
786-0 renal = system: 786-0 renal
OVCAR-4 ovarian = system: OVCAR-4 ovarian
TK-10 renal = system: TK-10 renal
NCI-H226 lung = system: NCI-H226 lung
HOP-92 NSCLC = system: HOP-92 NSCLC
PC-3 prostate = system: PC-3 prostate
NCI/ADR-RES ovarian = system: NCI/ADR-RES ovarian
SF-295 CNS = system: SF-295 CNS
COLO 205 colon = system: COLO 205 colon
RXF 393 renal = system: RXF 393 renal
HCT-15 colon = system: HCT-15 colon

c1cc2nnc1SCCSCCCSCCS2
TGI (T-47D breast): > 100 µM
TGI (M14 melanoma): > 100 µM
TGI (SW-620 colon): > 100 µM
TGI (MALME-3M melanoma): > 100 µM
TGI (SR leukemia): > 100 µM
TGI (MCF7 breast): > 100 µM
TGI (NCI-H23 lung): > 100 µM
TGI (NCI-H460 lung): > 100 µM
TGI (SNB-19 CNS): > 100 µM
TGI (SF-268 CNS): > 100 µM
TGI (EKVX NSCLC): > 100 µM
TGI (CCRF-CEM leukemia): > 100 µM
TGI (HCC-2998 colon): > 100 µM
TGI (ACHN renal): > 100 µM
TGI (SK-OV-3 ovarian): > 100 µM
TGI (RPMI-8226 leukemia): > 100 µM
TGI (UO-31 renal): > 100 µM
TGI (MDA-MB-435): > 100 µM
TGI (SK-MEL-5 melanoma): > 100 µM
TGI (HOP-62 NSCLC): > 100 µM
TGI (NCI-H522 lung): > 100 µM
TGI (UACC-257 melanoma): > 100 µM
TGI (SK-MEL-2 melanoma): > 100 µM
TGI (MOLT-4 leukemia): > 100 µM
TGI (OVCAR-3 ovarian): > 100 µM
TGI (SF-539 CNS): 58.2 µM
TGI (HT29 colon): > 100 µM
TGI (SNB-75 CNS): 41.2 µM
TGI (K-562 leukemia): > 100 µM
TGI (U251 CNS): > 100 µM
TGI (CAKI-1 renal): > 100 µM
TGI (HL-60(TB) leukemia): > 100 µM
TGI (LOX IMVI melanoma): > 100 µM
TGI (MDA-N): > 100 µM
TGI (A498 renal): > 100 µM
TGI (KM12 colon): > 100 µM
TGI (HCT-116 colon): > 100 µM
TGI (MDA-MB-231 breast): > 100 µM
TGI (SN12C renal): > 100 µM
TGI (SK-MEL-28 melanoma): > 100 µM
TGI (DU-145 prostate): > 100 µM
TGI (OVCAR-8 ovarian): > 100 µM
TGI (IGROV1 ovarian): > 100 µM
TGI (OVCAR-5 ovarian): > 100 µM
TGI (HS 578T breast): > 100 µM
TGI (A549 NSCLC): > 100 µM
TGI (UACC-62 melanoma): > 100 µM
TGI (786-0 renal): > 100 µM
TGI (OVCAR-4 ovarian): > 100 µM
TGI (TK-10 renal): > 100 µM
TGI (NCI-H226 lung): > 100 µM
TGI (HOP-92 NSCLC): > 100 µM
TGI (PC-3 prostate): > 100 µM
TGI (NCI/ADR-RES ovarian): > 100 µM
TGI (SF-295 CNS): > 100 µM
TGI (COLO 205 colon): > 100 µM
TGI (RXF 393 renal): > 100 µM
TGI (HCT-15 colon): > 100 µM
